# Test results: US20170342025A1, “ANTIMICROBIAL COMPOUNDS, COMPOSITIONS AND METHODS” (Swansea University, priority 2014, published 2017)
# Read-outs that look alike come from different tables or passages of the source.
# Assays:
# [1] = system: Staphylococcus aureus (strain 9518); assay: MIC determination against Staphylococcus aureus (Andrews protocol); format: cell-based; details: for MIC: Staphylococcus aureus, read-out: MIC S. aureus
# Method: (§1) Minimum Inhibitory Concentrations (MICs) for the compounds prepared were determined against Escherichia coli (strain JM109) and Staphylococcus aureus (strain 9518) using the protocols described by Andrews (J. Antimicrob. Chemother., 2001, 48, Suppl. S1, 5-16).
# [2] = system: Escherichia coli (strain JM109); assay: MIC determination against Escherichia coli (Andrews protocol); format: cell-based; details: for MIC: Escherichia coli, read-out: MIC E. coli
# Method: as §1
# [3] = Staphylococcus aureus strain 9518
compound,measurement,setting,value
"Cl.N=C(N)N/N=C/c1cccc(OCc2cccc(C(F)(F)F)c2Cl)c1Cl [Compound 51e, (E)-Amino(2-(2-chloro-3-((2-chloro-3-(trifluoromethyl)benzyl)oxy)benzylidene) hydrazinyl)methaniminium chloride]",melting point,,274 to 277 °C
same,MIC,[1]; [3],32 to 100 µg/mL
same,MIC,[2]; Escherichia coli strain JM109,1 to 10 µg/mL
"Cl.N=C(N)N/N=C/c1cccc(OCc2ccc(C(F)(F)F)cc2)c1 [Compound 49d, (E)-Amino(2-(3-((4-(trifluoromethyl)benzyl)oxy)benzylidene) hydrazinyl) methaniminium chloride]",melting point,,176 to 179 °C
same,MIC S. aureus,[1]; [3],++ (MIC 10-32 μg/mL)
same,MIC E. coli,[2]; Escherichia coli strain JM109,+++ (MIC 1-10 μg/mL)
"CC(=O)O.N=C(N)NN=Cc1cccc(OCc2cccc(C(F)(F)F)c2Cl)c1 [Compound 49b, 1-{[(3-{[2-chloro-3-(trifluoromethyl)phenyl]methoxy}phenyl)methylidene]amino} guanidine acetate]",melting point,,190 to 192 °C
same,MIC,[1]; [3],1 to 10 µg/mL
same,MIC,[2]; Escherichia coli strain JM109,1 to 10 µg/mL
"Cl.N=C(N)N/N=C/c1cccc(OCc2ccc(Cl)cc2)c1Cl [Compound 51c, (E)-Amino(2-(2-chloro-3-((4-chlorobenzyl)oxy)benzylidene)hydrazinyl) methaniminium chloride]",melting point,,237 to 239 °C
same,MIC,[1]; [3],1 to 10 µg/mL
same,MIC,[2]; Escherichia coli strain JM109,1 to 10 µg/mL
"Cl.N=C(N)N/N=C/c1cccc(OCc2cc(Cl)ccc2Cl)c1Cl [Compound 51g, (E)-Amino(2-(2-chloro-3-((2,5-dichlorobenzyl)oxy)benzylidene)hydrazinyl) methaniminium chloride]",melting point,,242 to 244 °C
same,MIC,[1]; [3],32 to 100 µg/mL
same,MIC,[2]; Escherichia coli strain JM109,10 to 32 µg/mL
"COc1cccc(COc2cccc(/C=N/NC(=N)N)c2Cl)c1Cl.Cl [Compound 51a, (E)-Amino(2-(2-chloro-3-((2-chloro-3-methoxybenzyl)oxy)benzylidene) hydrazinyl)methaniminium chloride]",melting point,,258 to 260 °C
same,MIC,[1]; [3],32 to 100 µg/mL
same,MIC,[2]; Escherichia coli strain JM109,32 to 100 µg/mL
"CC(=O)O.N=C(N)N/N=C/c1cccc(OCc2cccc(C(F)(F)F)c2)c1Cl [Compound 51j, (E)-Amino(2-(2-chloro-3-((3-(trifluoromethyl)benzyl)oxy)benzylidene)hydrazinyl) methaniminium acetate]",melting point,,183 to 187 °C
same,MIC,[1]; [3],1 to 10 µg/mL
same,MIC,[2]; Escherichia coli strain JM109,1 to 10 µg/mL
"N=C(N)Nc1cccc2c1CCCC2.O=C(O)C(F)(F)F [Compound 23d, 1-(5,6,7,8-tetrahydronaphthalen-1-yl)guanidine 2,2,2-trifluoroacetate]",melting point,,153 to 155 °C
same,MIC,[1]; [3],> 100 µg/mL
same,MIC,[2]; Escherichia coli strain JM109,> 100 µg/mL
"Cl.N=C(N)N/N=C/c1cccc(OCc2ccccc2)c1Cl [Compound 51b, (E)-Amino(2-(3-(benzyloxy)-2-chlorobenzylidene)hydrazinyl)methaniminium chloride]",melting point,,203 to 205 °C
same,MIC,[1]; [3],1 to 10 µg/mL
same,MIC,[2]; Escherichia coli strain JM109,1 to 10 µg/mL
Cl.N=C(N)N/N=C/c1cccc(OCc2ccc(Cl)cc2)c1,melting point,,191 to 193 °C
"N=C(N)NCc1cccc(N)c1.O=C(O)C(F)(F)F [Compound 53a, Amino((3-aminobenzyl)amino)methaniminium 2,2,2-trifluoroacetate]",MIC,[1],32 to 100 µg/mL
same,MIC,[2],32 to 100 µg/mL
"N=C(N)NCc1c(F)ccc(OCc2cccc(C(F)(F)F)c2)c1F.O=C(O)C(F)(F)F [Compound 4p, 1-[(2,6-difluoro-3-{[3-(trifluoromethyl)phenyl]methoxy}phenyl)methyl]guanidine 2,2,2-trifluoroacetate]",MIC,[1],1 to 10 µg/mL
same,MIC,[2],1 to 10 µg/mL
"N=C(N)Nc1ccc(CNC(=O)c2ccccc2)cc1.O=C(O)C(F)(F)F [Compound 59a, Amino((4-(benzamidomethyl)phenyl)amino)methaniminium 2,2,2-trifluoroacetate]",MIC,[1],32 to 100 µg/mL
same,MIC,[2],32 to 100 µg/mL
"N=C(N)NCc1cccc(OCc2cc(Cl)ccc2Cl)c1.O=C(O)C(F)(F)F [Compound 4f, 1-({3-[(2,5-dichlorophenyl)methoxy]phenyl}methyl)guanidine 2,2,2-trifluoroacetate]",MIC,[1],1 to 10 µg/mL
same,MIC,[2],10 to 32 µg/mL
"Cl.N=C(N)N/N=C/c1nccn1Cc1cccc(Cl)c1 [Compound 61a, (E)-amino(2-((1-(3-chlorobenzyl)-1H-imidazol-2-yl)methylene)hydrazinyl) methaniminium chloride]",MIC,[1]; [3],32 to 100 µg/mL
same,MIC,[2]; Escherichia coli strain JM109,32 to 100 µg/mL
"N=C(N)NCc1ccc(NS(=O)(=O)c2cccc(Cl)c2Cl)cc1.O=C(O)C(F)(F)F [Compound 55c, Amino((4-((2,3-dichlorophenyl)sulfonamido)benzyl)amino)methaniminium 2,2,2-trifluoroacetate]",MIC,[1]; [3],32 to 100 µg/mL
same,MIC,[2]; Escherichia coli strain JM109,32 to 100 µg/mL
"Cl.N=C(N)N/N=C/c1cccn1Cc1ccc(Cl)cc1 [Compound 61f, (E)-Amino(2-((1-(4-chlorobenzyl)-1H-pyrrol-2-yl)methylene)hydrazinyl) methaniminium chloride]",MIC,[1]; [3],10 to 32 µg/mL
same,MIC,[2]; Escherichia coli strain JM109,32 to 100 µg/mL
"N=C(N)NCc1ccc(NS(=O)(=O)c2ccc(Cl)cc2)cc1.O=C(O)C(F)(F)F [Compound 55b, Amino((4-((4-chlorophenyl)sulfonamido)benzyl)amino)methaniminium 2,2,2-trifluoroacetate]",MIC,[1]; [3],32 to 100 µg/mL
same,MIC,[2]; Escherichia coli strain JM109,32 to 100 µg/mL
"N=C(N)NCc1cccc(OCc2ccc(C(F)(F)F)cc2)c1.O=C(O)C(F)(F)F [Compound 4h, 1-[(3-{[4-(trifluoromethyl)phenyl]methoxy}phenyl)methyl]guanidine 2,2,2-trifluoroacetate]",MIC,[1],1 to 10 µg/mL
same,MIC,[2],1 to 10 µg/mL
"CC(C)(C)OC(=O)NC(=N)N1CCc2ccc(-c3ccc(C(C)(C)C)cc3)cc2C1.O=C(O)C(F)(F)F [Compound 28, tert-butyl N-[7-(4-tert-butylphenyl)-1,2,3,4-tetrahydroisoquinoline-2-carboximidoyl]carbamate 2,2,2-trifluoroacetate]",MIC,[1]; [3],32 to 100 µg/mL
same,MIC,[2]; Escherichia coli strain JM109,> 100 µg/mL
"Cl.N=C(N)N/N=C/c1cccc(OCc2ccc(C(F)(F)F)cc2)c1 [Compound 49f, (E)-Amino(2-(3-((4-(trifluoromethyl)benzyl)oxy)benzylidene)hydrazinyl) methaniminium chloride]",MIC S. aureus,[1]; [3],+++ (MIC 1-10 μg/mL)
same,MIC E. coli,[2]; Escherichia coli strain JM109,++ (MIC 10-32 μg/mL)
"N=C(N)NCc1c(F)ccc(OCc2cccc(Cl)c2Cl)c1F.O=C(O)C(F)(F)F [Compound 4o, 1-({3-[(2,3-dichlorophenyl)methoxy]-2,6-difluorophenyl}methyl)guanidine 2,2,2-trifluoroacetate]",MIC,[1],1 to 10 µg/mL
same,MIC,[2],1 to 10 µg/mL
Cl.N=C(N)N/N=C/c1cccc(OCc2cccc(C(F)(F)F)c2)c1Cl,melting point,,198 to 201 °C
"Cl.N=C(N)N/N=C/c1nccn1Cc1cccc(C(F)(F)F)c1 [Compound 61c, (E)-Amino(2-((1-(3-(trifluoromethyl)benzyl)-1H-imidazol-2-yl)methylene) hydrazinyl)methaniminium chloride]",MIC,[1]; [3],32 to 100 µg/mL
same,MIC,[2]; Escherichia coli strain JM109,32 to 100 µg/mL
"N=C(N)NCc1cccc(OCc2cccc(Cl)c2)c1.O=C(O)C(F)(F)F [Compound 4c, 1-({3-[(3-chlorophenyl)methoxy]phenyl}methyl)guanidine 2,2,2-trifluoroacetate]",MIC,[1],10 to 32 µg/mL
same,MIC,[2],10 to 32 µg/mL
"N=C(N)NCc1cccc(OCc2ccccc2)c1.O=C(O)C(F)(F)F [Compound 4a, 1-{[3-(benzyloxy)phenyl]methyl}guanidine 2,2,2-trifluoroacetate]",MIC,[1],1 to 10 µg/mL
same,MIC,[2],> 100 µg/mL
"Cl.N=C(N)N/N=C/c1cccc(OCc2cccc(Cl)c2)c1 [Compound 49e, (E)-Amino(2-(3-((3-chlorobenzyl)oxy)benzylidene)hydrazinyl)methaniminium chloride]",MIC,[1]; [3],10 to 32 µg/mL
same,MIC,[2]; Escherichia coli strain JM109,1 to 10 µg/mL
"N=C(N)NCc1cccc(OCc2ccc(Cl)cc2Cl)c1.O=C(O)C(F)(F)F [Compound 4d, 1-({3-[(2,4-dichlorophenyl)methoxy]phenyl}methyl)guanidine 2,2,2-trifluoroacetate]",MIC,[1],> 100 µg/mL
same,MIC,[2],1 to 10 µg/mL
"N=C(N)NCc1ccc(NC(=O)c2ccccc2)cc1.O=C(O)C(F)(F)F [Compound 57b, Amino((4-benzamidobenzyl)amino)methaniminium 2,2,2-trifluoroacetate]",MIC,[1],32 to 100 µg/mL
same,MIC,[2],32 to 100 µg/mL
"N=C(N)N1CCc2ccc(OCc3cccc(Cl)c3Cl)cc2C1.O=C(O)C(F)(F)F [Compound 33, 7-[(2,3-dichlorophenyl)methoxy]-1,2,3,4-tetrahydroisoquinoline-2-carboximidamide 2,2,2-trifluoroacetate]",MIC,[1]; [3],1 to 10 µg/mL
same,MIC,[2]; Escherichia coli strain JM109,1 to 10 µg/mL
"Cl.N=C(N)N/N=C/c1cccn1Cc1cccc(Cl)c1 [Compound 61e, (E)-Amino(2-((1-(3-chlorobenzyl)-1H-pyrrol-2-yl)methylene)hydrazinyl) methaniminium chloride]",MIC,[1]; [3],10 to 32 µg/mL
same,MIC,[2]; Escherichia coli strain JM109,32 to 100 µg/mL
"N=C(N)NCc1cccc(NS(=O)(=O)c2cccc(Cl)c2)c1.O=C(O)C(F)(F)F [Compound 55e, Amino((3-((3-chlorophenyl)sulfonamido)benzyl)amino)methaniminium 2,2,2-trifluoroacetate]",MIC,[1]; [3],32 to 100 µg/mL
same,MIC,[2]; Escherichia coli strain JM109,32 to 100 µg/mL
"Cl.N=C(N)N/N=C/c1nccn1Cc1ccc(C(F)(F)F)cc1 [Compound 61d, (E)-Amino(2-((1-(4-(trifluoromethyl)benzyl)-1H-imidazol-2-yl)methylene) hydrazinyl)methaniminium chloride]",MIC,[1]; [3],10 to 32 µg/mL
same,MIC,[2]; Escherichia coli strain JM109,1 to 10 µg/mL
"N=C(N)NCc1cccc(OCc2cccc(Cl)c2Cl)c1.O=C(O)C(F)(F)F [Compound 4g, 1-({3-[(2,3-dichlorophenyl)methoxy]phenyl}methyl)guanidine 2,2,2-trifluoroacetate]",MIC,[1],10 to 32 µg/mL
same,MIC,[2],10 to 32 µg/mL
